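These data come from cells grown in 96-well plates and exposed to compound for 48 hours at five concentrations. TGI: total growth inhibition.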 Where a SMILES comes first, the peptide text is derived from it. The star is where a group is joined. Cbz = O=C(OCc1ccccc1)*; Boc = CC(C)(C)OC(=O)*; OSu = O=C1CCC(=O)N1O*; Bn = c1ccc(C*)cc1
Experiments:
Assay in all cases: DTP human tumour cell line panel, 48 h
MALME-3M melanoma = test system: MALME-3M melanoma
EKVX NSCLC = test system: EKVX NSCLC
RXF 393 renal = test system: RXF 393 renal
OVCAR-5 ovarian = test system: OVCAR-5 ovarian
U251 CNS = test system: U251 CNS
SR leukemia = test system: SR leukemia
RPMI-8226 leukemia = test system: RPMI-8226 leukemia
NCI-H23 lung = test system: NCI-H23 lung
BT-549 breast = test system: BT-549 breast
COLO 205 colon = test system: COLO 205 colon
SN12C renal = test system: SN12C renal
DU-145 prostate = test system: DU-145 prostate

SMILES | TGI (MALME-3M melanoma) [µM] | TGI (EKVX NSCLC) [µM] | TGI (RXF 393 renal) [µM] | TGI (OVCAR-5 ovarian) [µM] | TGI (U251 CNS) [µM] | TGI (SR leukemia) [µM] | TGI (RPMI-8226 leukemia) [µM] | TGI (NCI-H23 lung) [µM] | TGI (BT-549 breast) [µM] | TGI (COLO 205 colon) [µM] | TGI (SN12C renal) [µM] | TGI (DU-145 prostate) [µM]
CN(NC(=O)c1cccs1)C1=NCCCCN1 | > 100 | > 100 | > 100 | > 100 | > 100 | > 100 | > 100 | > 100 | > 100 | > 100 |  | 
CN(C)S(=O)(=O)/N=C/c1cccc(/C=N/S(=O)(=O)N(C)C)c1 |  | > 100 |  | > 100 | > 100 |  | > 100 | > 100 | > 100 | > 100 | > 100 | > 100
CC1Oc2c(c(=O)oc3ccccc23)[C@@]1(C)CC1C[C@H](C)C(=O)O1 (some centres not stated) | 53.4 | > 100 |  | > 100 | > 100 |  | 77.4 | 40.9 | 71.8 | > 100 |  | > 100
Clc1cc(Cl)cc(C2ON=C(c3ccccc3)N2C23CC4CC(CC(C4)C2)C3)c1 (configuration not stated) | > 10 | > 10 | > 10 | > 10 | > 10 |  | > 10 | > 10 | > 10 | > 10 | > 10 | > 10
COCCCNC(=O)C1=C(C)NC(C)=C(C(=O)NCCCOC)C1 | 41.2 | 40.5 | > 100 | > 100 | > 100 | > 100 | > 100 | > 100 |  | > 100 | > 100 | > 100
COC1=CCC=C(C[C@@H]2NCCc3cc(OC)c(OC)cc32)C1 | > 100 | > 100 | > 100 | > 100 | > 100 |  | > 100 | > 100 |  | > 100 | > 100 | 
CC(=O)NC1=C(NCCN(C)C)C(=O)c2ccccc2C1=O | 14.3 | > 50 | > 50 |  | 29 | > 50 |  | 27.8 |  | 17.7 | 27.8 | 
COC(=O)[C@@H]1CN(C(C)=O)C(=O)N1C(=O)OCc1ccccc1 | > 100 | > 100 | > 100 | > 100 | > 100 | > 100 | > 100 | > 100 |  | > 100 | > 100 | > 100
CC(NC(=O)C(N)CC(=O)O)NC(=O)C1CCC1 (configuration not stated) | > 100 | > 100 | > 100 | > 100 | > 100 |  | > 100 | > 100 | > 100 | > 100 | > 100 | > 100
O=c1oc2ccccc2c(O)c1/C=N/C(=S)NCCc1ccccc1 |  | > 100 | > 100 | > 100 | > 100 | 41.7 | 89.3 | > 88 | > 84.7 | > 100 | > 100 | > 100
CC(C)(C)OC(=O)NCCc1cccc2c1oc1c(CCC(=O)O)cccc12 | > 100 |  | > 100 | > 100 | > 100 | > 100 | > 100 | > 100 |  | > 100 | > 100 | 
c1ccc(-n2nc3ccc4nonc4c3n2)cc1 | > 100 | > 100 | > 100 | > 100 | > 100 | > 100 | > 100 | > 100 |  | > 100 | > 100 | > 100
NC(=S)N/N=C1\NC(=O)/C(=C/c2ccc3c(c2)OCO3)S1 |  | 56 | 52.3 | 73.1 | 57.7 |  |  | 54.4 | 84.7 | 71.3 | > 100 | 88
CC(=O)Oc1ccccc1/C=C/C(=O)/C=C/c1ccccc1OC(C)=O | 6.11 | 9.9 | 1.65 | 4.35 | 3.18 |  | 1.84 | 4.61 | 3.97 | 4.06 | 4.07 | 9.59
COC1C=COC2(C)Oc3c(C)c(O)c4c(O)c(c(/C=N/N5CCN(N)CC5)c(O)c4c3C2=O)NC(=O)C(C)=CC=CC(C)C(O)C(C)C(O)C(C)C(OC(C)=O)C1C (configuration not stated) | > 100 | > 100 | > 100 | > 100 | > 100 | > 100 | 88.8 | > 100 |  | > 100 | > 100 | 
O=C(O)c1ccc(NC(NC(=O)C(C(F)(F)F)C(F)(F)F)(C(F)(F)F)C(F)(F)F)cc1 |  | > 100 | > 100 | > 100 | > 100 | > 100 | > 100 | > 100 | > 100 | > 100 | > 100 | 
CC(C)(C)OC(=O)NC(Cc1ccc(OCc2ccccc2)cc1)C(=O)NC(CCCCNC(=O)OCc1ccccc1)C(=O)ON1C(=O)CCC1=O (configuration not stated) (Boc-Tyr(Bn)-Lys(Cbz)-OSu; configuration not given here) | 46.9 | > 100 | 55.3 | 76.7 | 32.2 | 54.9 | 45.3 | 34.4 | 43.3 | 72.1 | 32.9 | 
CC1(C)C(O)C[C@@H](O)[C@@]2(C)C1CC[C@]1(C)C2C[C@@H](O)[C@@H]2C([C@@]3(C)CC[C@@H](C(C)(C)O)O3)CCC21C (some centres not stated) | 31.8 | 53.9 | 27.1 | 30.7 | 25.5 | > 100 | 66.5 | 35.3 |  | 30 | 26.9 | 
O=C(c1ccccc1)c1ccc(-n2c3ccccc3c3ccc4c(c32)C(=O)C=CC4=O)cc1 |  | 26.3 | 19.2 | 38.1 | 30.4 | > 34 | > 100 | 29.5 | 38.5 | 25.9 | 28.3 | > 40.1
c1ccc([P+](Cc2ccccc2C[P+](c2ccccc2)(c2ccccc2)c2ccccc2)(c2ccccc2)c2ccccc2)cc1 | > 100 |  | > 100 | > 100 | > 100 |  | > 100 | > 100 | > 100 | > 100 | > 100 | > 100
